# In US9758529B2, “Fused dihydro-4H-pyrazolo[5,1-C][1,4]oxazinyl compounds and analogs for treating CNS disorders” (Sunovion Pharmaceuticals Inc., priority 2015, dated 2017):
# System: mice
# Assay: Neuropharmacological Assay (SmartCube)
# Type: in vivo
# Conditions: i.p. 15 min before behavioral test; 3 doses, most efficacious dose(s) presented
SMILES,AD: ADHD (probability of class match),AG: analgesic (probability of class match),AX: anxiolytic (probability of class match),CE: cognitive enhancer (probability of class match),DP: anti-depressant (probability of class match),HA: hallucinogen (probability of class match),MS: mood stabilizer (probability of class match),PS: anti-psychotic (probability of class match),SD: sedative hypnotic (probability of class match),UN: uncharacterized CNS activity (probability of class match),XG: anxiogenic (probability of class match)
"CNC[C@H]1OCCn2nc3ccsc3c21 [Compound 69, (R)-1-(6,7-dihydro-9H-thieno[3′,2′:3,4]pyrazolo[5,1-c][1,4]oxazin-9-yl)-N-methylmethanamine]",+ (LOQ≦ + <5%),+ (LOQ≦ + <5%),++ (5%≦ ++ <25%),+ (LOQ≦ + <5%),++ (5%≦ ++ <25%),+ (LOQ≦ + <5%),+ (LOQ≦ + <5%),+ (LOQ≦ + <5%),+ (LOQ≦ + <5%),++ (5%≦ ++ <25%),+ (LOQ≦ + <5%)
"CNCC1OCCn2nc3ccccc3c21 (stereo not shown) [Compound I-4, (3,4-dihydro-1H-[1,4]oxazino[4,3-b]indazol-1-yl)-N-methylmethanamine]",++ (5%≦ ++ <25%),+ (LOQ≦ + <5%),+++ (25%≦ +++ <50%),+ (LOQ≦ + <5%),++++ (50%≦ ++++),++ (5%≦ ++ <25%),+ (LOQ≦ + <5%),+ (LOQ≦ + <5%),++ (5%≦ ++ <25%),+ (LOQ≦ + <5%),+ (LOQ≦ + <5%)
